Experimental data as given in ChEMBL document CHEMBL5291721, “A preclinical secondary pharmacology resource illuminates target-adverse drug reaction associations of marketed drugs” (Nat Commun, 2023).

Experiments:
[1] = molecular target: T1, 5-hydroxytryptamine receptor 3A (Homo sapiens, UniProt P46098); assay type: functional
T1 sequence (P46098 whole entry): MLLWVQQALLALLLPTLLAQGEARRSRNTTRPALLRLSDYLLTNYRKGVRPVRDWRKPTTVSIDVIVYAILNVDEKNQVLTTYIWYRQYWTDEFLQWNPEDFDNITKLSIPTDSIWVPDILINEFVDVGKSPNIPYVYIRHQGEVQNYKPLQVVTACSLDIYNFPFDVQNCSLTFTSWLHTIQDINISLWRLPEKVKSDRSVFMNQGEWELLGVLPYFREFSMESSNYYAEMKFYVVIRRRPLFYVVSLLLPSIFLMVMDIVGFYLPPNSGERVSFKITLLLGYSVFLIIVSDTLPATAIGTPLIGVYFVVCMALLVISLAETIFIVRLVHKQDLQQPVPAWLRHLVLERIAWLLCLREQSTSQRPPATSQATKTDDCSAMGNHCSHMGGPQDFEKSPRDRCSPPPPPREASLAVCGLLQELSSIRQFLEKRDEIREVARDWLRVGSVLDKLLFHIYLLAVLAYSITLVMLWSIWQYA

[2] = molecular target: 5-hydroxytryptamine receptor 2A (Homo sapiens, UniProt P28223); assay type: functional, cell-based
Chain of 5-hydroxytryptamine receptor 2A (P28223 whole entry): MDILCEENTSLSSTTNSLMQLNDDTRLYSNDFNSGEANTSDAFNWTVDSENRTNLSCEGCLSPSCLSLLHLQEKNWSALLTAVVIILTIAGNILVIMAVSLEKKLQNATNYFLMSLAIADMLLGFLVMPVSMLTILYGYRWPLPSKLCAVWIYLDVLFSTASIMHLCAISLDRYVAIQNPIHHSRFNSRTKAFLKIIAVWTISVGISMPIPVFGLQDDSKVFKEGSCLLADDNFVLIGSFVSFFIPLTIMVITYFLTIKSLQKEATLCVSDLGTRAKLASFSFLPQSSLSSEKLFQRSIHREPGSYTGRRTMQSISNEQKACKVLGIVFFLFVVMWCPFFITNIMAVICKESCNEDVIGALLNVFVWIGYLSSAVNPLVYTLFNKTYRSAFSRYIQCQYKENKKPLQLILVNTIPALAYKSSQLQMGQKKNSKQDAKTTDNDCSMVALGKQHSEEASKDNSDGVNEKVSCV

[3] = molecular target: Growth hormone secretagogue receptor type 1 (Homo sapiens, UniProt Q92847)
Chain of Growth hormone secretagogue receptor type 1 (Q92847 whole entry): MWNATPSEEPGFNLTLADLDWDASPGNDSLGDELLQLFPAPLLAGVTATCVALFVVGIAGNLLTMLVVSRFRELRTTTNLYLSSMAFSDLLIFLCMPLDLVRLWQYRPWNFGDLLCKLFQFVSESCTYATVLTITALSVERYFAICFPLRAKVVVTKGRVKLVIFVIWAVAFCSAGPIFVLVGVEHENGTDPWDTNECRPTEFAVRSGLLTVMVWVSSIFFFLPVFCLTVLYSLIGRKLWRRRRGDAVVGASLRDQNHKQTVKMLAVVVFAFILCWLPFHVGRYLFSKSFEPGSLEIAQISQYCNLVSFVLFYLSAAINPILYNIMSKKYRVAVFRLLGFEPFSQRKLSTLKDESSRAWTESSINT

[4] = molecular target: Histamine H2 receptor (Homo sapiens, UniProt P25021); assay type: functional, cell-based
Chain of Histamine H2 receptor (P25021 whole entry): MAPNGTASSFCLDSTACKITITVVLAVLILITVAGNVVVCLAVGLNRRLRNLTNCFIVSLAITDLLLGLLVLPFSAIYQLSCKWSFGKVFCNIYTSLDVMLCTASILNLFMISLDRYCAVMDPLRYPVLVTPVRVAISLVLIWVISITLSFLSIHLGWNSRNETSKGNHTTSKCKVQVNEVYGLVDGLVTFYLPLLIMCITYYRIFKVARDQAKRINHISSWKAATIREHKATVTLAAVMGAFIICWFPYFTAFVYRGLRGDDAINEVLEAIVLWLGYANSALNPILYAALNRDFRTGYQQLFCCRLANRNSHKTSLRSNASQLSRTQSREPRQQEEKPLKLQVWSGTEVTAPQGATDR

[5] = molecular target: T2, Muscarinic acetylcholine receptor M2 (Homo sapiens, UniProt P08172); assay type: functional, cell-based
T2 sequence (P08172 whole entry): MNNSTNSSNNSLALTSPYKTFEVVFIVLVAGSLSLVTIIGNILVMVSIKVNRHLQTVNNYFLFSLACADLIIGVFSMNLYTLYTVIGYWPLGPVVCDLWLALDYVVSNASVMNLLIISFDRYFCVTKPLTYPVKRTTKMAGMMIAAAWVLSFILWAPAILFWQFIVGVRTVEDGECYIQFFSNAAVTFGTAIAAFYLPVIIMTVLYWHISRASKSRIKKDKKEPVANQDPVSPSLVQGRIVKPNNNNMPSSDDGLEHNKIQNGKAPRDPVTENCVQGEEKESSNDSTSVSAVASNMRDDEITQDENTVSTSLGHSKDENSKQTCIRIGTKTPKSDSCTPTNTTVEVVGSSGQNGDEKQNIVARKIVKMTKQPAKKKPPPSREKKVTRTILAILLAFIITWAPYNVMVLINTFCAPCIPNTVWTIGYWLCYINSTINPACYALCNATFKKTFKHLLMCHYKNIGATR

[6] = molecular target: Beta-2 adrenergic receptor (Homo sapiens, UniProt P07550)
[7] = molecular target: Neuronal acetylcholine receptor subunit alpha-4 (Homo sapiens, UniProt P43681)
Chain of Neuronal acetylcholine receptor subunit alpha-4 (P43681 whole entry): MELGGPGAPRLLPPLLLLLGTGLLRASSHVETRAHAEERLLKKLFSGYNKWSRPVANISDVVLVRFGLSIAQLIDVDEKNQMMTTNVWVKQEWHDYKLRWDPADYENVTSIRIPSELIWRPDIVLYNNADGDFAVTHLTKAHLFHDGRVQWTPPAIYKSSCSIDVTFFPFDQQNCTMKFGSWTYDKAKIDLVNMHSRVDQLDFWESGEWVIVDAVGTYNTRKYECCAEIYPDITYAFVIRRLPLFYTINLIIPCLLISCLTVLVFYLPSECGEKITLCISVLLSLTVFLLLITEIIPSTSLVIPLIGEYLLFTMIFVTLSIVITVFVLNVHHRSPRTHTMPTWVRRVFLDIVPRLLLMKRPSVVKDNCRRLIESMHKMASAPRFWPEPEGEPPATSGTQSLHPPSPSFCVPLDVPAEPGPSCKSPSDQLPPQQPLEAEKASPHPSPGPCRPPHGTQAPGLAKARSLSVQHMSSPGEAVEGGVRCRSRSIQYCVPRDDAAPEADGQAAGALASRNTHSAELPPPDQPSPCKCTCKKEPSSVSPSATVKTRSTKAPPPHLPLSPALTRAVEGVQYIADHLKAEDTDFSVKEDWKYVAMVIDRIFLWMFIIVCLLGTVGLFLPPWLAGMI

[8] = molecular target: cGMP-inhibited 3',5'-cyclic phosphodiesterase 3A (Homo sapiens, UniProt Q14432); assay type: functional
Chain of cGMP-inhibited 3',5'-cyclic phosphodiesterase 3A (Q14432 whole entry): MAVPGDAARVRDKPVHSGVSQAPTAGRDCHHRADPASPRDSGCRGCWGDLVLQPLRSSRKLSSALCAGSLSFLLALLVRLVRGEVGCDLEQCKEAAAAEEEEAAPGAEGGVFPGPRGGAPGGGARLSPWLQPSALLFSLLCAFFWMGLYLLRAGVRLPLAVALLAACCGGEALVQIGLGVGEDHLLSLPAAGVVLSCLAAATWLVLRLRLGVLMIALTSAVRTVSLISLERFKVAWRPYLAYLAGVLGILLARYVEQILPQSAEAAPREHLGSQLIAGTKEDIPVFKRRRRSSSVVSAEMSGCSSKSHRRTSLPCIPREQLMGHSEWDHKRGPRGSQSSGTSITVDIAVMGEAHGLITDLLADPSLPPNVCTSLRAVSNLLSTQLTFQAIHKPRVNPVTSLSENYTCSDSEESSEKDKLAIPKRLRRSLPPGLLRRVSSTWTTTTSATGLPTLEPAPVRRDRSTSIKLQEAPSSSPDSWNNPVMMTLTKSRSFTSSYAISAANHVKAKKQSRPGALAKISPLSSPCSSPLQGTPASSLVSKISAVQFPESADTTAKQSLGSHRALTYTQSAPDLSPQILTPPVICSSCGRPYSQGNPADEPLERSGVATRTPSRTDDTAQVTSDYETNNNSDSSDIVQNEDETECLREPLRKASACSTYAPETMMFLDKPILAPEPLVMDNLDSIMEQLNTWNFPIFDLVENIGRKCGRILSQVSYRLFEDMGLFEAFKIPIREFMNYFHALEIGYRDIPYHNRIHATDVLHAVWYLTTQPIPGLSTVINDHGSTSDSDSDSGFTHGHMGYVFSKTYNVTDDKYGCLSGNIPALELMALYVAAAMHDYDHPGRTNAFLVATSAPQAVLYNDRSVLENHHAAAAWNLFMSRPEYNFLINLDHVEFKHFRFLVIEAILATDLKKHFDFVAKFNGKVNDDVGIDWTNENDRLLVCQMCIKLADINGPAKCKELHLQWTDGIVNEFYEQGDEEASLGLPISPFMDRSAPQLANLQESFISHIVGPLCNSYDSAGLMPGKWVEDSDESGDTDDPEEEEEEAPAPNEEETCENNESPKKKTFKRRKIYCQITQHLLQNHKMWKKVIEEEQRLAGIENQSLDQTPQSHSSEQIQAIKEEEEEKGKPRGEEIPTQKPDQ

[9] = molecular target: T3, Alpha-2A adrenergic receptor (Homo sapiens, UniProt P08913); assay type: functional, cell-based
T3 sequence (P08913 whole entry): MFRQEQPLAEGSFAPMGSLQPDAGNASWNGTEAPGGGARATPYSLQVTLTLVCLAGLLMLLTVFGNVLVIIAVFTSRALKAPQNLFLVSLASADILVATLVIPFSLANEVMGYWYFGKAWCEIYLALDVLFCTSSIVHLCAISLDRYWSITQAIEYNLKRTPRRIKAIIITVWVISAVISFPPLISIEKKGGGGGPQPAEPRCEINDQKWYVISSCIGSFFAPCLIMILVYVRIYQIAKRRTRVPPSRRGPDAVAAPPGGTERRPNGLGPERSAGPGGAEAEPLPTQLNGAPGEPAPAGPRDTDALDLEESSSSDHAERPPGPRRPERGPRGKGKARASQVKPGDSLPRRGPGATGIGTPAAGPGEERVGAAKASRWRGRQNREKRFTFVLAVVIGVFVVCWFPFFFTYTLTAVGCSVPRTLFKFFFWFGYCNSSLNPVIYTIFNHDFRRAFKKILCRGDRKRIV

[10] = molecular target: Delta-type opioid receptor (Homo sapiens, UniProt P41143)
Chain of Delta-type opioid receptor (P41143 whole entry): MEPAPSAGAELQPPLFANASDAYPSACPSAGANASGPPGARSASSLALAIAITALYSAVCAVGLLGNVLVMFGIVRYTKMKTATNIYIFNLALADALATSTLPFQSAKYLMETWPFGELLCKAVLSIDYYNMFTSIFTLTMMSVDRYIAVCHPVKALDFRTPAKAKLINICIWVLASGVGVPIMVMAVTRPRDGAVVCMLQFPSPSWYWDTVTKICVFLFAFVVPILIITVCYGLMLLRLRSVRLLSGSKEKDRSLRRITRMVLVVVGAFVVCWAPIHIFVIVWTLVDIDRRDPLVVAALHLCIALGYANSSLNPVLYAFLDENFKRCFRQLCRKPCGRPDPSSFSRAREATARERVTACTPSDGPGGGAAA

[11] = molecular target: T4, Alpha-1A adrenergic receptor (Homo sapiens, UniProt P35348)
T4 sequence (P35348 whole entry): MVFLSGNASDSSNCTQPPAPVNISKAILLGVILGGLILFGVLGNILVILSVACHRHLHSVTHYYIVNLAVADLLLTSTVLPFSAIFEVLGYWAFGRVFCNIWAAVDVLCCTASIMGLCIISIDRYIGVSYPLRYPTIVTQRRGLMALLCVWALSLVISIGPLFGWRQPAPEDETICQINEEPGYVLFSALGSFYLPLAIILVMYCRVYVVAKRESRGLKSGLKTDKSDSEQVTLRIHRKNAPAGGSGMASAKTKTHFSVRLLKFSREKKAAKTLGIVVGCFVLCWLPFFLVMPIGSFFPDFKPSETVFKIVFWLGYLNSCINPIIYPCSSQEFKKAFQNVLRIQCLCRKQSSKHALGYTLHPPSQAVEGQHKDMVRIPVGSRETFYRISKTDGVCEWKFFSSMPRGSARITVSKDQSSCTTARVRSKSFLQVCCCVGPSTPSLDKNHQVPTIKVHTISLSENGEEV

[12] = molecular target: T5, Cannabinoid receptor 1 (Homo sapiens, UniProt P21554); assay type: functional, cell-based
T5 sequence (P21554 whole entry): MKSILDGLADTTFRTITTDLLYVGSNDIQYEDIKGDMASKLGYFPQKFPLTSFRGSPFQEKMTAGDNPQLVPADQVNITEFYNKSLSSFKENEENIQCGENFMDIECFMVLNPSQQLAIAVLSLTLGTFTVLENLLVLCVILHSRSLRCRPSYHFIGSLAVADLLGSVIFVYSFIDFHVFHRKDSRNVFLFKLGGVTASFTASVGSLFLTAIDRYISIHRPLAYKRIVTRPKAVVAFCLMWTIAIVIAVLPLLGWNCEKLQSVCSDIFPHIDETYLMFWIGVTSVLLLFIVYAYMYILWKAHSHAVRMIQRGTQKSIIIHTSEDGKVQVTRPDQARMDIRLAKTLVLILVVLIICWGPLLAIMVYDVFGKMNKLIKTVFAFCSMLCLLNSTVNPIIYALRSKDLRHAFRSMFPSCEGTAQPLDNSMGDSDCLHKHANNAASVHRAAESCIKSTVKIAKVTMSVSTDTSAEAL

[13] = molecular target: T5, Cannabinoid receptor 1; assay type: functional, cell-based; remark: listed apart in the source
[14] = molecular target: T6, Gastrin/cholecystokinin type B receptor (Homo sapiens, UniProt P32239)
T6 sequence (P32239 whole entry): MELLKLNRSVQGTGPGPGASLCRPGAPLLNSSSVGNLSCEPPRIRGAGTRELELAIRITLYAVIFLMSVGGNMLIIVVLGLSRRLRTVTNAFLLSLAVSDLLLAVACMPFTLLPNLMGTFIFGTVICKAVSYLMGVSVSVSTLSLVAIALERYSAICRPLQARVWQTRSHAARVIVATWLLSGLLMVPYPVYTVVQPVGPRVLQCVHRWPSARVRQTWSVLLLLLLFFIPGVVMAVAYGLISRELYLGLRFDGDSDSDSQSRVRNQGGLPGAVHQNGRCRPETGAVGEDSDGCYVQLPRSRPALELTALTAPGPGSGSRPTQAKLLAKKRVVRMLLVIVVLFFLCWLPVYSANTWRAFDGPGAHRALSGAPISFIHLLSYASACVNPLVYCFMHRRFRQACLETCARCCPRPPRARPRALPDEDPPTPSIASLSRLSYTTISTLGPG
Also: assay procedure not described here.

| Compound | AC50 [1] [µM] | AC50 [2] [µM] | AC50 [3] [µM] | AC50 [4] [µM] | AC50 [5] [µM] | AC50 [6] [µM] | AC50 [7] [µM] | AC50 [8] [µM] | AC50 [9] [µM] | AC50 [10] [µM] | AC50 [11] [µM] | AC50 [12] [µM] | AC50 [13] [µM] | AC50 [14] [µM] |
| --- | --- | --- | --- | --- | --- | --- | --- | --- | --- | --- | --- | --- | --- | --- |
| OCC(O)COc1ccc(Cl)cc1 (stereo not drawn) | > 30 | > 10 | > 10 | > 10 | > 10 | > 10 | > 10 | > 30 | > 10 | > 30 | > 10 | – | – | – |
| C[C@@H](Cc1ccccc1)N(C)Cc1ccccc1 [BENZPHETAMINE] | > 30 | > 10 | > 10 | > 10 | > 10 | > 10 | > 10 | > 30 | > 10 | > 30 | 6.96 | > 30 | > 30 | – |
| CC(=O)OCC1=C(C(=O)O)N2C(=O)[C@@H](NC(=O)CSc3ccncc3)[C@H]2SC1 [CEPHAPIRIN] | > 30 | > 10 | > 10 | > 10 | > 10 | > 10 | > 10 | > 30 | > 10 | > 30 | > 10 | – | – | – |
| CN(C)CCOC(=O)C(c1ccccc1)C1(O)CCCC1 (stereo not drawn) [CYCLOPENTOLATE] | > 30 | > 10 | > 10 | > 30 | > 10 | > 10 | > 10 | > 30 | > 10 | > 30 | > 30 | – | – | – |
| O=C(C[S+]([O-])Cc1ccco1)NC/C=C\COc1cc(CN2CCCCC2)ccn1 (stereo not drawn) [LAFUTIDINE] | > 30 | > 30 | > 10 | > 10 | > 10 | > 10 | > 10 | > 30 | > 10 | > 30 | > 10 | > 30 | > 30 | – |
| CCC1(CC)C(=O)NC(=O)N(C)C1=O [METHARBITAL] | > 30 | > 10 | > 10 | > 10 | > 10 | > 10 | > 10 | > 30 | > 10 | > 30 | > 10 | – | – | – |
| CCOC(=O)O[C@]1(C(=O)COC(=O)CC)CC[C@H]2[C@@H]3CCC4=CC(=O)C=C[C@]4(C)[C@H]3[C@@H](O)C[C@@]21C [PREDNICARBATE] | > 30 | > 10 | > 10 | > 10 | > 10 | > 10 | > 10 | > 30 | > 10 | > 30 | > 10 | – | – | – |
| CCC(=O)[C@@]1(C)[C@H](C)C[C@H]2[C@@H]3CCC4=CC(=O)C=C[C@]4(C)[C@H]3[C@@H](O)C[C@@]21C [RIMEXOLONE] | > 30 | > 10 | > 10 | > 10 | > 10 | > 10 | > 10 | > 30 | > 10 | > 30 | > 10 | – | – | – |
| CCN(C(C)=O)c1cccc(-c2ccnc3c(C#N)cnn23)c1 [ZALEPLON] | > 30 | – | > 30 | > 10 | > 10 | > 30 | > 30 | 10 | > 10 | > 30 | > 10 | > 30 | > 30 | > 30 |
| TEPRENONE | > 30 | – | > 30 | > 10 | > 10 | > 30 | > 10 | > 30 | > 10 | > 30 | > 10 | > 30 | > 30 | > 30 |
